Assay results reported in patent US20190119282A1, “IMIDAZOPYRIDAZINES USEFUL AS INHIBITORS OF THE PAR-2 SIGNALING PATHWAY” (Vertex Pharmaceuticals Incorporated, priority 2013, published 2019).
Marks after values point to notes of the source that are not given here.

What was measured:
[1] = target: T1, PAR2 (HT-29 cells, SLIGKV activation) (Homo sapiens, UniProt P55085); assay: Ca FLIPR TETRA assay, ANTAGONIST mode, stimulation with 8 μM SLIGKV; format: cell-based; conditions: HT-29 cells, antagonist mode, stimulation with 8 μM SLIGKV
T1 construct: host or cells: HT-29 cells
T1 sequence (P55085 26-397): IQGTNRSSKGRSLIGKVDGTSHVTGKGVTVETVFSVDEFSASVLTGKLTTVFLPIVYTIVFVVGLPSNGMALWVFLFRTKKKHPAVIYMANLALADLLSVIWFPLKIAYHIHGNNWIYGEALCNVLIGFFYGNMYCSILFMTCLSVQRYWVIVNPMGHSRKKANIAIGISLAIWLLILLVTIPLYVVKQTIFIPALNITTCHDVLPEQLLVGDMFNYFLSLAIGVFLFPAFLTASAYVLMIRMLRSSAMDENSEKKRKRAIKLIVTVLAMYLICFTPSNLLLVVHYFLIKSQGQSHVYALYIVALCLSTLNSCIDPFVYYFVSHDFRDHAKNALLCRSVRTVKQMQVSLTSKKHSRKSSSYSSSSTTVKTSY
Outline: (§1)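 Antagonist-mode FLIPR Tetra Ca2+ readout: after 30 min r.t. compound pre-incubation, HT-29 cells are challenged with trypsin (3.1 U/mL final), SLIGKV (8 μM), thrombin (1 U/mL) or UTP (0.6 μM). Cells were plated overnight in 1% FBS medium and dye-loaded with Calcium 5; an initial read checks compound agonism.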

[2] = tested on: TNBS-induced colitis; assay: Mouse TNBS-induced colitis model; format: in vivo, BALB/c mice; conditions: mice
Protocol: (§2) Male Sprague Dawley rats and BALB/c mice were housed in groups in a temperature controlled room and were acclimatized in the animal facility for at least three days prior to use. Experiments were performed during the light phase of the cycle. Animals have food and water ad libitum.
Example 65: Mouse TNBS-Induced Colitis Model
Colitis was induced by intra-colonic administration of 1.5 mg of TNBS in 75 μl of 40% v/volume ethanol solution under isoflurane anesthesia at a depth of 4 cm from the anal verge. Mice were kept with their heads down for 30 additional seconds post administration to ensure distribution of TNBS. Disease activity scores were assessed for a period of 5 days starting prior to TNBS injection (baseline reading). […] Test compounds or vehicle (0.5% MC/0.1% SDS) were systemically administered at the indicated doses in a volume of 10 mL/kg each day for 5 days and starting 1 day before TNBS.
(§3) Data are expressed as the mean % effect. Statistical significance was assessed using t-test for comparison between naive and inflamed rats, and one-way ANOVA followed by post-hoc comparison test for overall drug effectiveness. A difference between groups is considered significant with a p value of <0.05. *, p<0.05; **, p<0.01; ***, p<0.001 vs. vehicle.

[3] = tested on: tryptase-induced mechanical hypersensitivity; assay: Rat tryptase-induced mechanical hypersensitivity model; format: in vivo, Sprague Dawley rats; conditions: given 30 minutes post tryptase challenge
Protocol: as §2
Example 64: Rat Tryptase-Induced Mechanical Hypersensitivity Model
Peripheral sensitization was induced by intra-dermal administration of 500 ng of tryptase in a volume of 10 ul PBS under isoflurane anesthesia. Rats were then placed on a wire mesh grid in separate compartments and allowed to acclimatize before testing. Mechanical hypersensitivity was assessed 30 min after tryptase injection using calibrated von Frey filaments applied perpendicular to the plantar surface of the affected paw using the up-and-down method. Test compounds or vehicle (0.5% MC/0.1% SDS) were systemically administered at doses indicated in a volume of 5 mL/kg 3-18 h before the tryptase challenge (Table 11) or 30 minutes post tryptase challenge (Table 12).
as §3

[4] = target: T2, PAR2 (HT-29 cells, trypsin activation) (Homo sapiens, UniProt P55085); assay: Ca FLIPR TETRA assay, ANTAGONIST mode, stimulation with 3.1 U/mL trypsin; format: cell-based; conditions: HT-29 cells, antagonist mode, stimulation with 3.1 U/mL trypsin
T2 construct: host or cells: HT-29 cells
T2 sequence (P55085 26-397): T1 sequence (P55085 26-397)
Outline: as §1

[5] = In vivo rat pharmacokinetics (intravenous and oral); conditions: plasma
Outline: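 Rats dosed by tail-vein bolus at 0.5–1 mg/kg in NMP-based solutions, or by oral gavage at 1–600 mg/kg as solution, suspension or spray-dried dispersion. Jugular blood in K3EDTA gave plasma or citrate-diluted whole blood; LC-MS/MS quantification, non-compartmental PK analysis.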

## Cc1nc(C(=O)N2CCN(C(=O)c3cn4nc(-c5ccc(F)cc5)cc(C(C)(C)C)c4n3)C(C)(C)C2)n[nH]1 [Compound I-343, (8-(tert-butyl)-6-(4-fluorophenyl)imidazo[1,2-b]pyridazin-2-yl)(2,2-dimethyl-4-(5-methyl-1H-1,2,4-triazole-3-carbonyl)piperazin-1-yl)methanone]
[1]
  IC50: 0.5 nM
[2]; dose 15 mg/kg each day for 5 days starting 1 day before TNBS
  % improvement in Disease activity scores: 24%
[2]; dose 50 mg/kg each day for 5 days starting 1 day before TNBS
  % improvement in Disease activity scores: 33* %
[2]; dose 150 mg/kg each day for 5 days starting 1 day before TNBS
  % improvement in Disease activity scores: 62*** %
[3]; dose 3 mg/kg
  % inhibition of an established tryptase-induced nociception: 12%
[3]; dose 10 mg/kg
  % inhibition of an established tryptase-induced nociception: 23%
[3]; dose 30 mg/kg
  % inhibition of an established tryptase-induced nociception: 49* %
[4]
  IC50: 0.8 nM
[5]; intravenous 0.5 to 1 mg/kg, read-out: Clp
  clearance: 3.39 mL/min/kg
[5]; intravenous, read-out: Vss
  Vd: 1.65 L/kg
[5]; oral by gavage
  bioavailability: 62%
[5]; read-out: T ½ (converted)
  half-life: 7.03 h
